This passage reports IC50 results from PubChem BioAssay AID602215 (Sanford-Burnham Center for Chemical Genomics, 2012).

Activity calls are given as the source filed them.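 Rule for the calls: active = IC50 of 20 µM or lower; inactive = the rest.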

The assay relates to HL-1 cardiomyocytes, H2O2 injury, ATP luminescence, 2 h. The experiment in a line: protection of HL-1 cardiomyocytes from peroxide injury, dose response, cell-based, ATP luminescence (AID 602215).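 Note: potency is for protection so actives raise ATP signal against peroxide damage.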
Take `COc1cc2[nH]c(=O)n3nc(-c4ccccc4)nc3c2cc1OC`: the IC50 – broadly, the concentration at which inhibition is half-maximal – is > 79 µM (inactive).
Under `COc1ccc(C(=O)Nc2cccc(NC(=O)c3ccc(OC)c(OC)c3)n2)cc1OC` stands > 79 µM (inactive); under `COc1cc(-c2cc(NC=O)c3ncc(-c4ccc(C(C)=O)cc4)n3c2)cc(OC)c1OC`, 4.1 µM.
Consider `CCCNC(=O)c1ccc(N2CCC3(CC2)CC(c2ccccc2)=NO3)c(NC(=O)c2ccco2)c1`, for which the half-maximal inhibitory concentration (IC50) was 3.22 µM.
Under `COc1cc(C(=O)N/N=C/c2ccc(OC(=O)c3ccccc3)c(OC)c2)ccc1O` stands > 79 µM (inactive); under `COc1ccc(CCNC(=O)C(=O)NCC2CCCN2S(=O)(=O)c2ccccc2)cc1OC` (centres undefined), > 79 µM (inactive).
On to `COc1cc(-c2cc(NC(C)=O)c3ncc(-c4ccc(C(C)=O)cc4)n3c2)cc(OC)c1OC`, for which the IC50 is > 79 µM (inactive).
In the case of `NC(=O)c1nsc(C(=O)N(c2ccccc2)C(C(=O)NCc2ccc(F)cc2)c2ccc(O)cc2)c1N` (centres undefined), the IC50 was > 79 µM (inactive).
For the molecule `O=C(C(=O)N(Cc1ccccc1)Cc1ccccc1)c1c(-c2ccccc2)[nH]c2ccccc12`, the IC50 is > 79 µM (inactive).
